Results published in publication PMC3898925 (Journal of Molecular Biology, 2010).

Key:
WsaF [1] = target: T1, WsaF (Geobacillus stearothermophilus, UniProt Q7BG50, K78A/K79A/K81A); assay: X-ray crystal structure of soaked complex, […] Å; assay type: binding; settings: crystal soaked 5 min in 25 mM dTDP; surface entropy reduction mutant WsaFSER2 (b48 prints K78A/E79A/K81A)
T1 construct: recombinant WsaF from pET28a-WsaF in E. coli BL21(DE3) Star; residues M1 to L413 mentioned

WsaF [2] = target: T2, WsaF (Geobacillus stearothermophilus, UniProt Q7BG50); assay: isothermal titration calorimetry; assay type: binding; settings: 20 mM NaP pH 8.5, 50 mM NaCl, 20 °C; one-site model
T2 construct: recombinant WsaF from pET28a-WsaF in E. coli BL21(DE3) Star; residues M1 to L413 mentioned
T2 sequence (Q7BG50 1-413): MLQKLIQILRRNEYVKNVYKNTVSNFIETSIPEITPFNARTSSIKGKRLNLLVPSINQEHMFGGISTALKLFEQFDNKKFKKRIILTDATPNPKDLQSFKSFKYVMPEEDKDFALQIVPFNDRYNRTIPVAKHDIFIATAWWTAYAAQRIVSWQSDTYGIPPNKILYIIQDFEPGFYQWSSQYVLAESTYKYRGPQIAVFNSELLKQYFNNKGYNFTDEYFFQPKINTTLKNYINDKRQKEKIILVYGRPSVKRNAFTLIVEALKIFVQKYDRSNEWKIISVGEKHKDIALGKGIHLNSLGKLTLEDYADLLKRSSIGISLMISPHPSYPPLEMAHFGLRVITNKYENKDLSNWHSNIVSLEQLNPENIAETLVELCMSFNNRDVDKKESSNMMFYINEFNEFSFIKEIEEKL

WsaF [3] = target: T3, WsaF (Geobacillus stearothermophilus, UniProt Q7BG50, E333A); assay: isothermal titration calorimetry; assay type: binding; settings: 20 mM NaP pH 8.5, 50 mM NaCl, 20 °C; one-site model
T3 construct: recombinant WsaF from pET28a-WsaF in E. coli BL21(DE3) Star; residues M1 to L413 mentioned

WsaF [4] = target: T4, WsaF (Geobacillus stearothermophilus, UniProt Q7BG50, R254A); assay: isothermal titration calorimetry; assay type: binding; settings: 20 mM NaP pH 8.5, 50 mM NaCl, 20 °C; one-site model
T4 construct: recombinant WsaF from pET28a-WsaF in E. coli BL21(DE3) Star; residues M1 to L413 mentioned

WsaF [5] = target: T1, WsaF; assay: X-ray crystal structure of soaked complex, […] Å; assay type: binding; settings: crystal soaked 5 min in 20 mM dTDP-β-L-Rha; WsaFSER2 (b48 prints K78A/E79A/K81A); authors regard rhamnose ring position as incorrect
[6] = target: the molecule itself; assay: crystal structure; SeMet-labelled WsaF, space group P2_(1), two molecules in the asymmetric unit, 2.28 Å

T1 sequence (Q7BG50 entry or part of it K78A/K79A/K81A): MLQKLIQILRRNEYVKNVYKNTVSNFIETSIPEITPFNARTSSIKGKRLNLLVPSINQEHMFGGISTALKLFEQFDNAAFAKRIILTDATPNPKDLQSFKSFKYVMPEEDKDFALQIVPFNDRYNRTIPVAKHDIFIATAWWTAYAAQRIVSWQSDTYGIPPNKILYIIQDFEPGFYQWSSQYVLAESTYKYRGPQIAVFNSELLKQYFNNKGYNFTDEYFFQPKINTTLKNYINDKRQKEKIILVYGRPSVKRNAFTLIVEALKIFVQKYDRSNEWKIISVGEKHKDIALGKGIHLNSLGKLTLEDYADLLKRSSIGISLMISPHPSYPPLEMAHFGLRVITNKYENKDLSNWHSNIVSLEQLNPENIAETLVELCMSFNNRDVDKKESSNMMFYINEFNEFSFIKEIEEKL
T4 sequence (Q7BG50 entry or part of it R254A): as the sequence (Q7BG50 entry or part of it K78A/K79A/K81A) above, with A78K, A79K, A81K, R254A counted along it
T3 sequence (Q7BG50 entry or part of it E333A): as the sequence (Q7BG50 entry or part of it K78A/K79A/K81A) above, with A78K, A79K, A81K, E333A counted along it

With Cc1cn([C@H]2C[C@H](O)[C@@H](COP(=O)(O)OP(=O)(O)O)O2)c(=O)[nH]c1=O [dTDP] the “X-ray crystal structure of soaked complex, 2.81 Å” value (WsaF [1]) was “The structures of the dTDP-WsaFSER2 and dTDP-β-L-Rha-WsaFSER2 complexes were obtained by soaking”, the isothermal titration calorimetry (WsaF [2]) was “showed weaker dTDP binding than native WsaF, when qualitatively comparing the curves (Fig. S3)” and the isothermal titration calorimetry (WsaF [3]) was “The mutant E333A showed a reduced binding affinity for dTDP”. For the same molecule, the isothermal titration calorimetry (WsaF [4]) was “(ITC) of E333A and R254A showed weaker dTDP binding than native WsaF”.

Cc1cn([C@H]2C[C@H](O)[C@@H](COP(=O)(O)OP(=O)(O)O[C@H]3O[C@@H](C)[C@H](O)[C@@H](O)[C@H]3O)O2)c(=O)[nH]c1=O [dTDP-β-L-rhamnose] was tested, and the “X-ray crystal structure of soaked complex, 2.55 Å” value (WsaF [5]) was “The structures of the dTDP-WsaFSER2 and dTDP-β-L-Rha-WsaFSER2 complexes were obtained by soaking”.

B1: SeMet-labelled WsaF from Geobacillus stearothermophilus NRS 2004/3a (enzyme)
chain: MLQKLIQILRRNEYVKNVYKNTVSNFIETSIPEITPFNARTSSIKGKRLNLLVPSINQEHMFGGISTALKLFEQFDNKKFKKRIILTDATPNPKDLQSFKSFKYVMPEEDKDFALQIVPFNDRYNRTIPVAKHDIFIATAWWTAYAAQRIVSWQSDTYGIPPNKILYIIQDFEPGFYQWSSQYVLAESTYKYRGPQIAVFNSELLKQYFNNKGYNFTDEYFFQPKINTTLKNYINDKRQKEKIILVYGRPSVKRNAFTLIVEALKIFVQKYDRSNEWKIISVGEKHKDIALGKGIHLNSLGKLTLEDYADLLKRSSIGISLMISPHPSYPPLEMAHFGLRVITNKYENKDLSNWHSNIVSLEQLNPENIAETLVELCMSFNNRDVDKKESSNMMFYINEFNEFSFIKEIEEKL
modifications: selenomethionine (SeMet)-labelled
notes: WsaF, beta-1,2-rhamnosyltransferase of Geobacillus stearothermophilus NRS 2004/3a; the structure is described from M1 to L413 (M1-N25, Q58-G63 and N382-E389 with poor or no density); also called SeMet variant WsaF; SeMet-WsaF; source: E. coli BL21(DE3) Star, purified to homogeneity
With B1 the “stoichiometry N” value [6] was 2.
